Results taken from US20220088195A1, “Prevention or mitigation of T-cell bispecific antibody-related adverse effects” (Hoffmann-La Roche Inc., priority 2020, published 2022).
“Also recorded” adds a separate entry of the source.

How the values were obtained:
CD4+ and CD8+ T cells = test: T cell proliferation (CTV dye dilution) and T cell counts in SKM-1 killing assay with HLA-A2 WT-1-TCB; type: cell-based, human
Method: (§1) FIG. 3. In vitro killing assay set-up and timelines. PBMCs were co-cultured with SKM-1 target cells (E:T=10:1) and 10 nM HLA-A2 WT-1-TCB. Dasatinib (100 nM) was added after 24 hours of activation. PBMCs were labelled with CellTrace™ Violet (CTV) to allow T cell proliferation assessment.
FIG. 6. T cell proliferation. In the assay of FIG. 3, proliferation of CD4+ (A) and CD8+ (B) T cells was measured by FACS 144h after stimulation with HLA-A2 WT-1 TCB by analysis of CTV dye dilution.
FIG. 7. Counts of CD4+ and CD8+ T cells. In the assay of FIG. 3, CD4+ (A) and CD8+(B) T cells counts were measured by FACS, mean of 3 donors+/−SD. paired t test, one tailed p value: 0.1234 (ns), 0.0332 (*), 0.0021 (**), 0.0002 (***), <0.0001 (****).
Furthermore, we assessed T cell proliferation 120 hours after the addition of 100 nM dasatinib in the killing assay by measuring the dilution peaks of the CellTrace™ violet (CTV) dye by flow cytometry.

SUDLH-8 tumor cells = test: Killing assay, PBMCs + CTV labelled SUDLH-8 cells + CD19-TCB, flow cytometry 24 hrs; type: cell-based, human; conditions: 100 nM dasatinib, monohydrate
Method: FIG. 26. In vitro killing assay set-up. PBMCs were co-cultured with CellTrace™ Violet (CTV)-labelled SUDLH-8 tumor cells (E:T=10:1) and escalating concentrations of CD19-TCB in the presence and absence of 100 nM dasatinib.
FIG. 27. […] The killing of SUDLH-8 tumor cells was measured by flow cytometry using a Live Dead Near InfraRed (NIR) dye allowing for exclusion of dead cells (24 hrs) in the assay described in FIG. 26. Mean of n=3 donors+SD. One way ANOVA, Friedman test, p-value: 0.1234 (ns), 0.0332 (*), 0.0021 (**), 0.0001 (***), <0.0001 (****).
(§2) The killing of CTV labelled SUDLH-8 cells was measured by flow cytometry using a Live/Dead Near Infra Red (NIR) dye. […] The expression of CD69 and CD25 were measured on CD4+ (FIG. 28) and CD8+(FIG. 29) T cells by flow cytometry as a readout for T cell activation. […] Lastly, the cytokine levels were analyzed in the supernatants of the assay by Luminex to evaluate the effect of dasatinib on CD19-TCB-induced cytokine release (FIGS. 30 and 31).

[1] = test system: IL-2, IFN-γ, TNF-α, IL-6, GM-CSF and IL-8 release; test: CD19-TCB-induced cytokine release in the SUDLH-8 assay (Luminex); type: cell-based, human; conditions: 100 nM dasatinib, monohydrate
Method: The levels of IL-2 (A), IFN-γ (B), TNF-α (C), IL-6 (D), GM-CSF (E) and IL-8 (F) were measured by Luminex in the supernatant of the assay described in FIG. 26.
FIG. 31. […] The levels of IFN-γ (A), TNF-α (B), IL-2 (C), IL-6 (D), GM-CSF (E) and IL-8 (F) were measured by Luminex in the supernatant of the assay described in FIG. 26.
as §2

[2] = test system: IFN-γ, TNF-α and IL-2 release; test: Cytokine release in SKM-1 killing assay with HLA-A2 WT-1-TCB, dasatinib added after 24 hours (Luminex); type: cell-based, human; conditions: 48 hours; 100 nM dasatinib added at 24 hours
Method: as §1
FIG. 5. Cytokine release. Supernatants were collected from the assay of FIG. 3 at 24h and 48h, and cytokines (IFN-γ (A), TNF-α (B) and IL-2 (C)) measured using a multiplex kit (Luminex). Mean+/−SD of 3 donors.
To evaluate if dasatinib could act as a rapid and potent inhibitor of activated T cells, we first stimulated PBMCs on SKM-1 tumor cells with HLA-A2 WT-1-TCB for 24 hours. We then supplemented these activated effector cells with 100 nM dasatinib (FIG. 3).

[3] = test system: IL-2, TNF-α, IFN-γ and IL-6; test: CD19-TCB induced serum cytokine release in humanized NSG mice (Luminex); type: in vivo; conditions: 1.5 and 6 hrs post treatment, 50 mg/kg dasatinib p.o., monohydrate
Method: Humanized NSG mice were co-treated with 0.5 mg/kg CD19-TCB (i.v.) and 50 mg/kg dasatinib (p.o.) twice per day. Blood was collected by tail vein bleeding at 1.5 hrs, 6 hrs and 48 hrs after treatment with CD19-TCB. At 72 hrs, blood was collected retro-orbitally, before the termination of the experiment. N=4 mice per group.
Serum was collected from blood samples collected 1.5 hrs post treatment with CD19-TCB in the experiment described in FIG. 32. The levels of IL-2 (A), TNF-α (B), IFN-γ (C) and IL-6 (D) are measured by Luminex. Mean of n=4 mice+/−SEM. One way ANOVA, Kruskal Wallis test, p-value: 0.1234 (ns), 0.0332 (*), 0.0021 (**), 0.0001 (***), <0.0001 (****).
Serum is collected from blood samples collected 6 hrs post treatment with CD19-TCB in the experiment described in FIG. 32. The levels of IL-2 (A), TNF-α (B), IFN-γ (C) and IL-6 (D) are measured by Luminex. Mean of n=4 mice+/−SEM. One way ANOVA, Kruskal Wallis test, p-value: 0.1234 (ns), 0.0332 (*), 0.0021 (**), 0.0001 (***), <0.0001 (****).
To best mimick the pharmacodynamic profile of dasatinib in the clinic and to verify whether the resulting exposure would be sufficient to prevent CD19-TCB-induced T cell cytotoxicity and cytokine release, dasatinib was given per os twice per day.
Lastly, mice were bled 1.5 and 6 hrs post treatment with CD19-TCB and dasatinib to collect serum for cytokine measurements by Luminex (FIGS. 35 and 36).

[4] = test system: lymphoma patient derived xenograft (PDX); test: Humanized NSG mice engrafted with lymphoma PDX: serum cytokines, body weight, tumor growth; type: in vivo
Method: Humanized NSG mice were engrafted with a lymphoma PDX (5 million cells, s.c.). When tumors reached 200 mm^3, mice were randomized in groups of 8 or 7 based on their tumor size. They were treated with vehicle (i.v.), 0.5 mg/kg CD19-TCB (i.v.) as a monotherapy, 20 mg/kg dasatinib (p.o.) alone or in combination with 0.5 mg/kg CD19-TCB (i.v.). The serum of each mouse in the vehicle, CD19-TCB, and CD19-TCB+dasatinib groups and of n=4 mice in the dasatinib group was collected by tail-vein bleeding 6 hrs after the first treatment with CD19-TCB.
Cytokine levels in each individual mouse from the experiment described in FIG. 37. The levels of IFN-γ (A), TNF-α (B), IL-2 (C) and IL-6 (D) were measured in the serum by multiplex cytokine analysis using Luminex. Mean of n=6-8 mice+/−SEM with *p≤0.05, **p≤0.01, ***p≤0.001 by 1 way ANOVA (Kruskal Wallis test).
Body weight loss for each individual mouse from the experiment described in FIG. 37. The change in body weight [%] is measured as a percentage of the body weight before first treatment with CD19-TCB for each mouse. Box and whiskers showing minimum to maximum values of n=6-8 mice per group.
Tumor growth curves of the experiment described in FIG. 37. Tumor growth curves were plotted from tumor volumes measured using a Caliper, mean of n=6-8 mice+SD with **p≤0.01 by 1 way ANOVA (Kruskal Wallis test).
We evaluated the impact of transient interventions with dasatinib on CD19-TCB anti-tumor activity in humanized NSG mice engrafted with a lymphoma patient derived xenograft (PDX). Therefore, mice were treated with either vehicle, 0.5 mg/kg CD19-TCB as a monotherapy, or 20 mg/kg dasatinib, alone or in combination with 0.5 mg/kg CD19-TCB (FIG. 37). Dasatinib was given one hour prior and 6 hrs after the first treatment with CD19-TCB and then twice per day for the next 2 days to prevent cytokine release, predominantly occurring upon the first infusion. Moreover, dasatinib was also administered one hour before each subsequent treatment to prevent eventual residual cytokine secretion (FIG. 37).

Cc1nc(Nc2ncc(C(=O)Nc3c(C)cccc3Cl)s2)cc(N2CCN(CCO)CC2)n1 [dasatinib, N-(2-chloro-6-methylphenyl)-2-[[6-[4-(2-hydroxyethyl)-1-piperazinyl]-2-methyl-4-pyrimidinyl]amino]-5-thiazole carboxamide monohydrate]
TCB-induced T cell proliferation (CTV dilution) (CD4+ and CD8+ T cells; 100 nM dasatinib added at 24 h, 120 hours after addition, 10 nM HLA-A2 WT-1-TCB): inhibited TCB-induced T cell proliferation with a stronger impact on CD4+ T cells than CD8+ T cells | CD4+ and CD8+ T cell counts (CD4+ and CD8+ T cells; 100 nM dasatinib versus positive control without dasatinib): significantly higher in positive control samples which were not treated with 100 nM dasatinib, than in samples treated with 100 nM dasatinib | killing of SUDLH-8 tumor cells by CD19-TCB (SUDLH-8 tumor cells): prevented killing | release of IL-2, IFN-γ, TNF-α, IL-6, GM-CSF and IL-8 [1]: prevents CD19-TCB-induced cytokine release; also recorded: prevented the release | release of IFN-γ, TNF-α and IL-2 from activated T cells [2]: rapidly prevented the release of cytokines | CD19-TCB-induced serum IL-2, TNF-α, IFN-γ and IL-6 ([3]; listed as Dasatinib): prevents CD19-TCB induced cytokine release in vivo | CD19-TCB-induced serum IL-2, TNF-α, IFN-γ and IL-6 [3]: inhibited | CD19-TCB-mediated cytokine release (IFN-γ, TNF-α, IL-2, IL-6) upon the first infusion ([4]; 20 mg/kg dasatinib p.o. + 0.5 mg/kg CD19-TCB i.v., serum 6 hrs): strongly reduced | body weight change ([4]; 24 hrs after the first CD19-TCB treatment, 20 mg/kg dasatinib): milder body weight change | interference with CD19-TCB anti-tumor efficacy (tumor growth curves) ([4]; transient use of 20 mg/kg dasatinib with 0.5 mg/kg CD19-TCB): minimally, yet not significantly, interfered
